Key:
Focal adhesion kinase 1 = Focal adhesion kinase 1 (Homo sapiens, UniProt Q05397); experiment: Selectivity interaction (ActivX KiNativ screen (kinase selectivity in THP-1 cell lysates)) EUB0000639a PTK2; assay type: subcellular; details: lysate, at 0.01 µM
[1] = molecular target: Ephrin type-A receptor 2 (Homo sapiens) (UniProt P29317); experiment: Selectivity interaction (KinomeScan (DiscoverX)) EUB0000595a EPHA2; details: at 10 µM
[2] = molecular target: T1, Casein kinase I isoform alpha-like (Homo sapiens) (UniProt Q8N752); experiment: Selectivity interaction (Ambit KINOMEscan and KiNATiv profiling in Jurkat cells) EUB0000090b CSNK1A1L; assay type: cell-based; details: at 1 µM
T1 sequence (whole entry): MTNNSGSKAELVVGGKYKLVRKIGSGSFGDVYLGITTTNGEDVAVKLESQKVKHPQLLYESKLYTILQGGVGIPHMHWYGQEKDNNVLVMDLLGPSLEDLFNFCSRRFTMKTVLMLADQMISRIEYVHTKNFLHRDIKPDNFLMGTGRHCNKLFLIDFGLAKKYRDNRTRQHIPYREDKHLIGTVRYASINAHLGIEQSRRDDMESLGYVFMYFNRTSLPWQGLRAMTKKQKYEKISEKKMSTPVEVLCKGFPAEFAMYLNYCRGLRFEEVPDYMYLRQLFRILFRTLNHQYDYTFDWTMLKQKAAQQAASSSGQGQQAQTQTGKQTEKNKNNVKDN

[3] = molecular target: Serine/threonine-protein kinase SIK3 (Homo sapiens) (UniProt Q9Y2K2); experiment: Selectivity interaction (Ambit KINOMEscan and KiNATiv profiling in Jurkat cells) EUB0000090b SIK3; assay type: cell-based; details: at 1 µM
[4] = molecular target: T2, Atypical kinase COQ8B, mitochondrial (Homo sapiens) (UniProt Q96D53); experiment: Selectivity interaction (Ambit KINOMEscan and KiNATiv profiling in Jurkat cells) EUB0000090b ADCK4; assay type: cell-based; details: at 1 µM
T2 sequence (whole entry): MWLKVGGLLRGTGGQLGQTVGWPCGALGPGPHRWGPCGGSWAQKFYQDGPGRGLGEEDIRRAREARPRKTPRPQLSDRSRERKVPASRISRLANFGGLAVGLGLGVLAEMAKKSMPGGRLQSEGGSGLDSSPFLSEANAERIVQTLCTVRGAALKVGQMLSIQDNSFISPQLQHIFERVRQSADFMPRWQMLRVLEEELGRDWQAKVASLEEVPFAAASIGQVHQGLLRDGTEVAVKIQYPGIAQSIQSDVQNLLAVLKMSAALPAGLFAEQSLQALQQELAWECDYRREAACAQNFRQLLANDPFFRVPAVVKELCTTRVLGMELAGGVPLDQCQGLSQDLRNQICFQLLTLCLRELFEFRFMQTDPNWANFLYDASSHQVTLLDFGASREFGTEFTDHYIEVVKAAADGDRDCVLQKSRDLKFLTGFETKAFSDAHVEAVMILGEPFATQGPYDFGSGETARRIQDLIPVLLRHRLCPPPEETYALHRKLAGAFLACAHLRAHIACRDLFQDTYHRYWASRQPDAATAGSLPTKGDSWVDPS

[5] = molecular target: Tyrosine-protein kinase FRK (Homo sapiens) (UniProt P42685); experiment: Selectivity interaction (KinomeScan (DiscoverX)) EUB0000618a FRK; details: at 10 µM
Chain of Tyrosine-protein kinase FRK (Homo sapiens) (P42685 whole entry): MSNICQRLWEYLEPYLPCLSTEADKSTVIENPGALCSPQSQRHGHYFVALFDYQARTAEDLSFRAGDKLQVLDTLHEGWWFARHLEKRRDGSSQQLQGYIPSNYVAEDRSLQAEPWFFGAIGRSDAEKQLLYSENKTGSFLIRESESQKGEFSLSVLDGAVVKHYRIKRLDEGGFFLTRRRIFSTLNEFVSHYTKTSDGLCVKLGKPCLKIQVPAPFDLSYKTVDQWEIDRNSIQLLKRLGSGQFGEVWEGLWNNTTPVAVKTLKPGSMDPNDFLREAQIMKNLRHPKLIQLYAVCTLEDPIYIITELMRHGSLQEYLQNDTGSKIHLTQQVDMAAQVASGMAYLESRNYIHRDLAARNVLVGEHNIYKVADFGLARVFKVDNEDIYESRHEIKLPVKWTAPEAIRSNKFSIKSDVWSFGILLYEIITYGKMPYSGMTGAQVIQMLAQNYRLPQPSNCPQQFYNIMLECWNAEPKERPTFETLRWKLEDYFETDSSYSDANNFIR

[6] = molecular target: T3, Serine/threonine-protein kinase BRSK2 (Homo sapiens) (UniProt Q8IWQ3); details: at 10 µM
T3 sequence (whole entry): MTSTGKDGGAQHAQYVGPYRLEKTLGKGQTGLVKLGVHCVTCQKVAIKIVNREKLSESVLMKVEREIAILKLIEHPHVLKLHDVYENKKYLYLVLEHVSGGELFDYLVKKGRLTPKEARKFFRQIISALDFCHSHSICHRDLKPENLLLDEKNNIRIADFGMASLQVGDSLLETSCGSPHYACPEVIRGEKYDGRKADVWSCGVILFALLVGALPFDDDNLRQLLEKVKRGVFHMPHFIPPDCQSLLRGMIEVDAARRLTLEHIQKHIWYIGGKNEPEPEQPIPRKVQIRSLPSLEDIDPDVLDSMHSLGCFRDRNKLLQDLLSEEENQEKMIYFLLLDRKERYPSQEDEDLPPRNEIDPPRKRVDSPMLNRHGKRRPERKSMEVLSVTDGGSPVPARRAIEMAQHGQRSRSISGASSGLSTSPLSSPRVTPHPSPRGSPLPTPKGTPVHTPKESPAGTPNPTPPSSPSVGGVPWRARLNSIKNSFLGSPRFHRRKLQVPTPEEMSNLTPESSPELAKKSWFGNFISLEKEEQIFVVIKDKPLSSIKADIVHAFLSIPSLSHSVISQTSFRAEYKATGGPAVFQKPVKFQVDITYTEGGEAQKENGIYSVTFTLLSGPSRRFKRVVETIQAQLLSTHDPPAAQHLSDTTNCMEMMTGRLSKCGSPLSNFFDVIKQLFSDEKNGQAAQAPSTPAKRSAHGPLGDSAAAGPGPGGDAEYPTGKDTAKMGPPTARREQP

[7] = molecular target: Protein kinase C alpha type (Homo sapiens, UniProt P17252); experiment: Selectivity interaction (SelectScreen profiling (Invitrogen)) EUB0000607a PRKCA; details: at 2 µM
[8] = molecular target: T4, Dual specificity mitogen-activated protein kinase kinase 6 (Homo sapiens) (UniProt P52564); experiment: Selectivity interaction (SelectScreen profiling (Invitrogen)) EUB0000607a MAP2K6; details: at 2 µM
T4 sequence (whole entry): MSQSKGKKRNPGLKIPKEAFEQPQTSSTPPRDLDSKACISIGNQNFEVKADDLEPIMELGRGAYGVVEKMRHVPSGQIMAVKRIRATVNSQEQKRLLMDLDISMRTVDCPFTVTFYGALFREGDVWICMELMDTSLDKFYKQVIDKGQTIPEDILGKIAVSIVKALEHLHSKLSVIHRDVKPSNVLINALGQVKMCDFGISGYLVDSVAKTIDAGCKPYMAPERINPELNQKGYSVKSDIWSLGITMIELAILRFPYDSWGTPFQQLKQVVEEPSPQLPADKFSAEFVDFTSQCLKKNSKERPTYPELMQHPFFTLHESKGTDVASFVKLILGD

[9] = molecular target: Leucine-rich repeat serine/threonine-protein kinase 2 (Homo sapiens, UniProt Q5S007); experiment: Selectivity interaction (Adapta Assay) EUB0001632a LRRK2; details: at 10 µM
Chain of Leucine-rich repeat serine/threonine-protein kinase 2 (Q5S007 whole entry): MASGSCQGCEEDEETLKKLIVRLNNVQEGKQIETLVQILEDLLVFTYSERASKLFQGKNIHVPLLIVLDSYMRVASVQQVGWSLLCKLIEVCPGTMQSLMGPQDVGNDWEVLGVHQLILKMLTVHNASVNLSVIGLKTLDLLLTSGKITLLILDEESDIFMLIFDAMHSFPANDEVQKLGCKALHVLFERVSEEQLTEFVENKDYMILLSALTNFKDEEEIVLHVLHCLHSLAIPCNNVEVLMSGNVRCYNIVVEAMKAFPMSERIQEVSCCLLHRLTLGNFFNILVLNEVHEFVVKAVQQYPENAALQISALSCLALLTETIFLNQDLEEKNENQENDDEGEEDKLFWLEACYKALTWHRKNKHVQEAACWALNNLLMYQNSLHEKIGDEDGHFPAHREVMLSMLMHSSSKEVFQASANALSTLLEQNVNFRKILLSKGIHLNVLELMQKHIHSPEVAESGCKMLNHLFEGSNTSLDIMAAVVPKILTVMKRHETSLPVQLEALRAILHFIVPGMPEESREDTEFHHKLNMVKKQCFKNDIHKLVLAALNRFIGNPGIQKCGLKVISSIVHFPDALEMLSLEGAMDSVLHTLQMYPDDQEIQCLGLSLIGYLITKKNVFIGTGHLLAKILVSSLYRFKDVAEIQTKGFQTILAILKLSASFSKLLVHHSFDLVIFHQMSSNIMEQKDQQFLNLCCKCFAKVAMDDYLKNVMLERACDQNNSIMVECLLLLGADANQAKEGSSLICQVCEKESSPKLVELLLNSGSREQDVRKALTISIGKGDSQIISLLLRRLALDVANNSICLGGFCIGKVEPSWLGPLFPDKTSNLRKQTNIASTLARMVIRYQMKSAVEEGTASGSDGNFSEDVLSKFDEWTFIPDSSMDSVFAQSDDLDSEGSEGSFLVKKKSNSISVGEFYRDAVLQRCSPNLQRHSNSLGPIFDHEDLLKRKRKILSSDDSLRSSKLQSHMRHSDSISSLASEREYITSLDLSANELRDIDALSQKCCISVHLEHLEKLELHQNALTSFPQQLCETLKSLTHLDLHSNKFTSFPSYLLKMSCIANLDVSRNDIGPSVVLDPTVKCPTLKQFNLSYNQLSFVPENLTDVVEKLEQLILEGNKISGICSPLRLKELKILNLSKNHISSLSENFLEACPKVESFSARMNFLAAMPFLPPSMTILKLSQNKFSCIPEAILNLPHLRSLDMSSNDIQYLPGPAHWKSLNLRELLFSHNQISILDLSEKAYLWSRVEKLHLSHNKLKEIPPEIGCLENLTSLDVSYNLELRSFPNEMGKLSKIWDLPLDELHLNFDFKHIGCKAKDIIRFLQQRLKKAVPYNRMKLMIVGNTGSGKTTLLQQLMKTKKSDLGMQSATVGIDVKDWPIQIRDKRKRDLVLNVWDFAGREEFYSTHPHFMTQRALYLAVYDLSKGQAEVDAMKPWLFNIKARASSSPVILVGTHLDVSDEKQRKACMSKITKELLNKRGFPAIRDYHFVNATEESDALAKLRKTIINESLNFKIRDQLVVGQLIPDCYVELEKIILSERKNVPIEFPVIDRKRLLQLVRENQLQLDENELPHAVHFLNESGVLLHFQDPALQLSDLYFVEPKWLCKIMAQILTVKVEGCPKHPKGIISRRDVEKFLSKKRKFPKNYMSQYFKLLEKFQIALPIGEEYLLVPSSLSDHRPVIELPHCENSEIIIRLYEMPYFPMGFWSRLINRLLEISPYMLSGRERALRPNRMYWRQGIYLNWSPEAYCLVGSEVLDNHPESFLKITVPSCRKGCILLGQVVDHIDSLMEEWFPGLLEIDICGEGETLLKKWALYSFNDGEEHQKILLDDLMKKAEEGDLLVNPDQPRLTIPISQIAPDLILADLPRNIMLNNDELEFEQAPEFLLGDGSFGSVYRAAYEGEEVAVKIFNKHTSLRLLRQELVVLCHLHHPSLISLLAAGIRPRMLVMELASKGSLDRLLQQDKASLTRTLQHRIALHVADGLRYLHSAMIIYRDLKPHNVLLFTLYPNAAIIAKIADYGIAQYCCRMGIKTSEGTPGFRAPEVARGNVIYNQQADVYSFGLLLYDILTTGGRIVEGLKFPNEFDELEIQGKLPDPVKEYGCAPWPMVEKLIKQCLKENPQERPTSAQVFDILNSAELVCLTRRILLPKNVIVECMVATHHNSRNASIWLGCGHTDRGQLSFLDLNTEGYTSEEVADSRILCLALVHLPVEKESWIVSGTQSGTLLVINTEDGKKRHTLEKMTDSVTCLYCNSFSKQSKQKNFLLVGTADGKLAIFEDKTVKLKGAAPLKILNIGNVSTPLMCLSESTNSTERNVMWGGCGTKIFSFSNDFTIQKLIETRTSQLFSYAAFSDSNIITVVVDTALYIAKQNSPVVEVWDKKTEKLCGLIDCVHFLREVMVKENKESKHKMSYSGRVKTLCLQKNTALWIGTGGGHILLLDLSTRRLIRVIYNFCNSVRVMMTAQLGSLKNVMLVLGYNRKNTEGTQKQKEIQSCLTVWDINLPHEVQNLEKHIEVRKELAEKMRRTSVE

Chain of Ephrin type-A receptor 2 (Homo sapiens) (P29317 whole entry, canonical isoform): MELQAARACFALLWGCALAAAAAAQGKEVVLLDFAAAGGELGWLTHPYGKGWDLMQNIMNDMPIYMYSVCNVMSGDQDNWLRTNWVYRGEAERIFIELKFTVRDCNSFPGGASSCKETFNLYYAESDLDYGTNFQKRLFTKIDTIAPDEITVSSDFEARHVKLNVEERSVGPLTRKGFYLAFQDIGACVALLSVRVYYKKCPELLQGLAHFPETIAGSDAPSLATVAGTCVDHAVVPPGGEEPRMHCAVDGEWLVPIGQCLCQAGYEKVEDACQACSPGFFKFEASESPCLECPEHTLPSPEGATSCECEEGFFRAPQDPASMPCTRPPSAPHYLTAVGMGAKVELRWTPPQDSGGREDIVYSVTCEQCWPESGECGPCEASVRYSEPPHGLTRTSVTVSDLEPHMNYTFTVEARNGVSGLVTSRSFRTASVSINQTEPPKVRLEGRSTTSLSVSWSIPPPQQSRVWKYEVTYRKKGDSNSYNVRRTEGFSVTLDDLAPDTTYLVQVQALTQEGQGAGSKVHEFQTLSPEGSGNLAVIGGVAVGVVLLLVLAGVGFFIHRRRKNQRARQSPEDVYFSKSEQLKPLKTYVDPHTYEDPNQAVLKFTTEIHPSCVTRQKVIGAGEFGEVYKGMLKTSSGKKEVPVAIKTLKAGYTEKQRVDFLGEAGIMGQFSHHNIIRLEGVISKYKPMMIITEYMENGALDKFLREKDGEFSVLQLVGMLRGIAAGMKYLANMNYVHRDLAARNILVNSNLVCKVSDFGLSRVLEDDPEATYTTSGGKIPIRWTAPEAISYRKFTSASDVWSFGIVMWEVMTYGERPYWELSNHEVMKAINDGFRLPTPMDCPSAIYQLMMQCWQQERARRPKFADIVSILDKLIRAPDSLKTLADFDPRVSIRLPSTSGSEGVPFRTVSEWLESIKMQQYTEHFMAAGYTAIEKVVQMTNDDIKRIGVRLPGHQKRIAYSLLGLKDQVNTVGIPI
Chain of Focal adhesion kinase 1 (Q05397 2-1052 limits assumed): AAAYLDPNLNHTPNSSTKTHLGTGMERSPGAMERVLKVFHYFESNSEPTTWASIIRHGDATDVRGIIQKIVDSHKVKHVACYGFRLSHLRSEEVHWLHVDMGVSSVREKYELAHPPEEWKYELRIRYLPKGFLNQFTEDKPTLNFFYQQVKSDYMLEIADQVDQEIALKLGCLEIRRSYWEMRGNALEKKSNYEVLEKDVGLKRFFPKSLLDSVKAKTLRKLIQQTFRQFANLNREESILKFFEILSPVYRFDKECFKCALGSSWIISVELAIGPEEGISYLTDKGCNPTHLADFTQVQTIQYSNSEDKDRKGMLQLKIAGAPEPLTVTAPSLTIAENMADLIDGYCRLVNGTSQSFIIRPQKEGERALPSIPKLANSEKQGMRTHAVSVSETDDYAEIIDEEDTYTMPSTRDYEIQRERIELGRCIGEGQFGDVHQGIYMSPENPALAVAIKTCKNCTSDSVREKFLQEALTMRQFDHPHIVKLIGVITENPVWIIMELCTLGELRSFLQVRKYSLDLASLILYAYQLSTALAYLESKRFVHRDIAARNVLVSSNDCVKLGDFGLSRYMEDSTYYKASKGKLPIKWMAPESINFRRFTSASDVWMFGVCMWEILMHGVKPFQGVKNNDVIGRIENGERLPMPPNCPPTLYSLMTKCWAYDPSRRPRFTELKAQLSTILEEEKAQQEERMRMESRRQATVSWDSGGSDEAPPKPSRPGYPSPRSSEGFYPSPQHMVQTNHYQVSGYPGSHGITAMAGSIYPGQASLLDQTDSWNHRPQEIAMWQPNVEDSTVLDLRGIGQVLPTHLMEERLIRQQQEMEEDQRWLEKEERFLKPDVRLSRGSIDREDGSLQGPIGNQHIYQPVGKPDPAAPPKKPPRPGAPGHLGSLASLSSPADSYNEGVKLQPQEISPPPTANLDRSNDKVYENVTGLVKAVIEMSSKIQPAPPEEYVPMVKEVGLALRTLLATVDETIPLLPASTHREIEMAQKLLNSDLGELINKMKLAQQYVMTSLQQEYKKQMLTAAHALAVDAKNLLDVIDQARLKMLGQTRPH

With `CC[C@@H]1[C@H](F)C(=O)N[C@@H]1COc1nccc2cc(C(N)=O)c(OC)cc12` [ZIMLOVISERTIB] the % of inhibition (Focal adhesion kinase 1) was -47.2%.

Compound `COCC(=O)NC/C=C/c1ccc2ncnc(Nc3ccc(Oc4ccc(C)nc4)c(C)c3)c2c1` [CP-724714] has a % of control [1] of 100%.

With `CN(C)C/C=C/C(=O)Nc1ccc(C(=O)N2CCCC(Nc3ncc(Cl)c(-c4c[nH]c5ccccc45)n3)C2)cc1` (stereo not given) the % of control [2] was 65%, the % of control [3] was 99% and the % of control [4] was 69%.

With `O[C@H]1CC[C@H](Nc2ncc3nc(Nc4c(F)cc(F)cc4F)n([C@H]4CCOC4)c3n2)CC1` the % of control [5] was 100%.

In the case of `Cc1cc([C@@H](C)Nc2ccccc2C(=O)O)c2nc(N3CCOCC3)cc(=O)n2c1` [AZD-6482], the % of control [6] is reported as 100%.

Compound `CNC(=O)Nc1ccc(-c2nc(N3CC4CCC(C3)O4)c3cnn(C4CCC5(CC4)OCCO5)c3n2)cc1` has a % of inhibition [7] of 10% and a % of inhibition [8] of 8%.

Compound `Cn1cc(-n2cnc3c(NCc4nc5cc(Cl)c(Cl)cc5[nH]4)nc(N4CCOCC4)nc32)cn1` has a % of inhibition [9] of 100%.

Reference: ChEMBL document CHEMBL5465560, “Selectivity Literature for EUbOPEN Chemogenomic Library” (2024)
